Measured values as given in US10442807B2, “Aryl substituted bicyclic compounds as herbicides” (FMC Corporation, priority 2015, dated 2019).

Experiments:
Type in all cases: in vivo
[1] = system: ryegrass, Italian (Italian ryegrass, Lolium multiflorum); experiment: Test A preemergence, directed soil spray, visual injury rating; conditions: approx. 10 d, 0 = no effect, 100 = complete control
Text: (§1) Seeds of plant species selected from barnyardgrass (Echinochloa crus-galli), kochia (Kochia scoparia), ragweed (common ragweed, Ambrosia elation), ryegrass, Italian (Italian ryegrass, Lolium multiflorum), foxtail, giant (giant foxtail, Setaria faberii), and pigweed (Amaranthus retroflexus), were planted into a blend of loam soil and sand and treated preemergence with a directed soil spray using test chemicals formulated in a non-phytotoxic solvent mixture which included a surfactant. At the same time, plants selected from these weed species and also blackgrass (Alopecurus myosuroides), galium (catchweed bedstraw, Galium aparine), wheat (Triticum aestivum), and corn (Zea mays) were planted in pots containing the same blend of loam soil and sand and treated with postemergence applications of test chemicals formulated in the same manner. Plants ranged in height from 2 to 10 cm and were in the one- to two-leaf stage for the postemergence treatment. Treated plants and untreated controls were maintained in a greenhouse for approximately 10 d, after which time all treated plants were compared to untreated controls and visually evaluated for injury. Plant response ratings, summarized in Table A, are based on a 0 to 100 scale where 0 is no effect and 100 is complete control. A dash (-) response means no test result.

[2] = system: barnyardgrass (Echinochloa crus-galli); experiment: as above; conditions: approx. 10 d, 0 = no effect, 100 = complete control
Text: as §1

kochia (Kochia scoparia) [3] = experiment: as above; conditions: approx. 10 d, 0 = no effect, 100 = complete control
Text: as §1

[4] = system: ragweed (common ragweed, Ambrosia elation); experiment: as above; conditions: approx. 10 d, 0 = no effect, 100 = complete control
Text: as §1

[5] = system: foxtail, giant (giant foxtail, Setaria faberii); experiment: as above; conditions: approx. 10 d, 0 = no effect, 100 = complete control
Text: as §1

[6] = system: pigweed (Amaranthus retroflexus); experiment: as above; conditions: approx. 10 d, 0 = no effect, 100 = complete control
Text: as §1

rice (Oryza sativa) = experiment: Test B flooded paddy test, visual plant response rating; conditions: 500 g ai/ha; applied to paddy water at 2-leaf stage; rated after 13 to 15 days; scale 0 to 100, 0 is no effect, 100 is complete control
Text: (§2) At time of treatment, test pots were flooded to 3 cm above the soil surface, treated by application of test compounds directly to the paddy water, and then maintained at that water depth for the duration of the test. Treated plants and controls were maintained in a greenhouse for 13 to 15 days, after which time all species were compared to controls and visually evaluated. Plant response ratings, summarized in Table B, are based on a scale of 0 to 100 where 0 is no effect and 100 is complete control. A dash (-) response means no test result.

[7] = system: ducksalad (Heteranthera limosa); experiment: as above; conditions: 500 g ai/ha; applied to paddy water at 2-leaf stage; rated after 13 to 15 days; scale 0 to 100, 0 is no effect, 100 is complete control
Text: as §2

[8] = system: barnyardgrass (Echinochloa crus-galli); experiment: as above; conditions: 500 g ai/ha; applied to paddy water at 2-leaf stage; rated after 13 to 15 days; scale 0 to 100, 0 is no effect, 100 is complete control
Text: as §2

[9] = system: sedge, umbrella (small-flower umbrella sedge, Cyperus difformis); experiment: as above; conditions: 500 g ai/ha; applied to paddy water at 2-leaf stage; rated after 13 to 15 days; scale 0 to 100, 0 is no effect, 100 is complete control
Text: as §2

[10] = system: wheat (Triticum aestivum); experiment: Test A postemergence application, visual injury rating; conditions: approx. 10 d, 0 = no effect, 100 = complete control
Text: as §1

corn (Zea mays) = experiment: as above; conditions: approx. 10 d, 0 = no effect, 100 = complete control
Text: as §1

[11] = system: ryegrass, Italian (Italian ryegrass, Lolium multiflorum); experiment: as above; conditions: approx. 10 d, 0 = no effect, 100 = complete control
Text: as §1

[12] = system: barnyardgrass (Echinochloa crus-galli); experiment: as above; conditions: approx. 10 d, 0 = no effect, 100 = complete control
Text: as §1

[13] = system: blackgrass (Alopecurus myosuroides); experiment: as above; conditions: approx. 10 d, 0 = no effect, 100 = complete control
Text: as §1

kochia (Kochia scoparia) [14] = experiment: as above; conditions: approx. 10 d, 0 = no effect, 100 = complete control
Text: as §1

[15] = system: ragweed (common ragweed, Ambrosia elation); experiment: as above; conditions: approx. 10 d, 0 = no effect, 100 = complete control
Text: as §1

[16] = system: foxtail, giant (giant foxtail, Setaria faberii); experiment: as above; conditions: approx. 10 d, 0 = no effect, 100 = complete control
Text: as §1

[17] = system: pigweed (Amaranthus retroflexus); experiment: as above; conditions: approx. 10 d, 0 = no effect, 100 = complete control
Text: as §1

[18] = system: galium (catchweed bedstraw, Galium aparine); experiment: as above; conditions: approx. 10 d, 0 = no effect, 100 = complete control
Text: as §1

SMILES	Ryegrass, Italian plant response rating (0 to 100 scale) ([1]; 125 g ai/ha)	Ryegrass, Italian plant response rating (0 to 100 scale) ([1]; 500 g ai/ha)	Barnyardgrass plant response rating (0 to 100 scale) ([2]; 125 g ai/ha)	Barnyardgrass plant response rating (0 to 100 scale) ([2]; 500 g ai/ha)	Kochia plant response rating (0 to 100 scale) (kochia (Kochia scoparia) [3]; 125 g ai/ha)	Kochia plant response rating (0 to 100 scale) (kochia (Kochia scoparia) [3]; 500 g ai/ha)	Ragweed plant response rating (0 to 100 scale) ([4]; 125 g ai/ha)	Ragweed plant response rating (0 to 100 scale) ([4]; 500 g ai/ha)	Foxtail, Giant plant response rating (0 to 100 scale) ([5]; 125 g ai/ha)	Foxtail, Giant plant response rating (0 to 100 scale) ([5]; 500 g ai/ha)	Pigweed plant response rating (0 to 100 scale) ([6]; 125 g ai/ha)	Pigweed plant response rating (0 to 100 scale) ([6]; 500 g ai/ha)	Plant response rating, Flood, Rice (rice (Oryza sativa))	Plant response rating, Flood, Ducksalad [7]	Plant response rating, Flood, Barnyardgrass [8]	Plant response rating, Flood, Sedge, Umbrella [9]	Wheat plant response rating (0 to 100 scale) ([10]; 125 g ai/ha)	Wheat plant response rating (0 to 100 scale) ([10]; 500 g ai/ha)	Corn plant response rating (0 to 100 scale) (corn (Zea mays); 125 g ai/ha)	Corn plant response rating (0 to 100 scale) (corn (Zea mays); 500 g ai/ha)	also measured
O=C(Nc1ccccc1F)C1c2nncn2CC1c1cccc(C(F)(F)F)c1 (stereo not drawn) [Compound 2, N-(2-fluorophenyl)-6,7-dihydro-6-[3-(trifluoromethyl)phenyl]-5H-pyrrolo[2,1-c]-1,2,4-triazole-7-carboxamide]	0	0	60	90	0	0	0	0	90	90	0	0	0	0	0	0	0	50	20	40	Ryegrass, Italian plant response rating (0 to 100 scale) ([11]; 125 g ai/ha): 0; Ryegrass, Italian plant response rating (0 to 100 scale) ([11]; 500 g ai/ha): 50; Barnyardgrass plant response rating (0 to 100 scale) ([12]; 125 g ai/ha): 60; Barnyardgrass plant response rating (0 to 100 scale) ([12]; 500 g ai/ha): 80; Blackgrass plant response rating (0 to 100 scale) ([13]; 125 g ai/ha): 40; Blackgrass plant response rating (0 to 100 scale) ([13]; 500 g ai/ha): 70; Kochia plant response rating (0 to 100 scale) (kochia (Kochia scoparia) [14]; 125 g ai/ha): 0; Kochia plant response rating (0 to 100 scale) (kochia (Kochia scoparia) [14]; 500 g ai/ha): 30; Ragweed plant response rating (0 to 100 scale) ([15]; 125 g ai/ha): 0; Ragweed plant response rating (0 to 100 scale) ([15]; 500 g ai/ha): 10; Foxtail, Giant plant response rating (0 to 100 scale) ([16]; 125 g ai/ha): 50; Foxtail, Giant plant response rating (0 to 100 scale) ([16]; 500 g ai/ha): 90; Pigweed plant response rating (0 to 100 scale) ([17]; 125 g ai/ha): 0; Pigweed plant response rating (0 to 100 scale) ([17]; 500 g ai/ha): 10; Galium plant response rating (0 to 100 scale) ([18]; 125 g ai/ha): 50; Galium plant response rating (0 to 100 scale) ([18]; 500 g ai/ha): 50
O=C(Nc1ccccc1F)C1c2nccn2CC1c1cccc(C(F)(F)F)c1 (stereo not drawn) [Compound 4]	0	0	20	90	0	0	0	0	60	90	0	0	0	0	0	0	0	20	0	0	Ryegrass, Italian plant response rating (0 to 100 scale) ([11]; 125 g ai/ha): 0; Ryegrass, Italian plant response rating (0 to 100 scale) ([11]; 500 g ai/ha): 0; Barnyardgrass plant response rating (0 to 100 scale) ([12]; 125 g ai/ha): 20; Barnyardgrass plant response rating (0 to 100 scale) ([12]; 500 g ai/ha): 60; Blackgrass plant response rating (0 to 100 scale) ([13]; 125 g ai/ha): 20; Blackgrass plant response rating (0 to 100 scale) ([13]; 500 g ai/ha): 40; Kochia plant response rating (0 to 100 scale) (kochia (Kochia scoparia) [14]; 125 g ai/ha): 0; Kochia plant response rating (0 to 100 scale) (kochia (Kochia scoparia) [14]; 500 g ai/ha): 0; Ragweed plant response rating (0 to 100 scale) ([15]; 125 g ai/ha): 0; Ragweed plant response rating (0 to 100 scale) ([15]; 500 g ai/ha): 0; Foxtail, Giant plant response rating (0 to 100 scale) ([16]; 125 g ai/ha): 20; Foxtail, Giant plant response rating (0 to 100 scale) ([16]; 500 g ai/ha): 70; Pigweed plant response rating (0 to 100 scale) ([17]; 125 g ai/ha): 0; Pigweed plant response rating (0 to 100 scale) ([17]; 500 g ai/ha): 0; Galium plant response rating (0 to 100 scale) ([18]; 125 g ai/ha): 0; Galium plant response rating (0 to 100 scale) ([18]; 500 g ai/ha): 0
